According to article PMC6420026, “TLR9-mediated dendritic cell activation uncovers mammalian ganglioside species with specific ceramide backbones that activate invariant natural killer T cells” (PLoS Biology, 2019):
Read-outs that look alike come from different tables or passages of the source.

Biological target: T1, mouse CD1d (mCD1d) (Mus musculus, UniProt P11609)
T1 construct: gene Cd1d1
T1 sequence (P11609 22-305 limits assumed): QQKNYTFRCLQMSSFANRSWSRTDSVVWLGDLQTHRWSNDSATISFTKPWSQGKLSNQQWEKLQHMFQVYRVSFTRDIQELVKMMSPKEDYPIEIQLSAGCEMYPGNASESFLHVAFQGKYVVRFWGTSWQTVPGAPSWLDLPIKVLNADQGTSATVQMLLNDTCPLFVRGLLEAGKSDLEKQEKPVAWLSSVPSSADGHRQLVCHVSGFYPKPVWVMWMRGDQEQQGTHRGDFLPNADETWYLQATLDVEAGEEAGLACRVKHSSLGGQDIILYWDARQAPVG
T1 sequence (P01887 21-119 partner): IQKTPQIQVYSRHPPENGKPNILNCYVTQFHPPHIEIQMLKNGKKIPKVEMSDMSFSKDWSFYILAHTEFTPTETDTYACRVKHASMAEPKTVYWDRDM
Experiment: microscale thermophoresis
Type: binding

| Kd | Kd (NT-647-labelled mCD1d 125 nM, PBS 25 mM, 0.05% Tyloxapol, up to 5% DMSO, 1:1 fit, labelled protein) | SMILES |
| --- | --- | --- |
| 102 ± 2.3 µM | – | CCCCCCCC/C=C\CCCCCCCCCCCCCC(=O)N[C@@H](CO[C@@H]1O[C@H](CO)[C@@H](O[C@@H]2O[C@H](CO)[C@H](O)[C@H](O[C@]3(C(=O)O)C[C@H](O)[C@@H](NC(C)=O)[C@H]([C@H](O)[C@H](O)CO)O3)[C@H]2O)[C@H](O)[C@H]1O)[C@H](O)/C=C/CCCCCCCCCCCCC [C24:1 GM3] |
| – | 69.1 ± 1.5 µM | CCCCCCCC/C=C\CCCCCCCCCCCCCC(=O)N[C@@H](CO[C@@H]1O[C@H](CO)[C@@H](O[C@@H]2O[C@H](CO)[C@H](O)[C@H](O[C@]3(C(=O)O)C[C@H](O)[C@@H](NC(C)=O)[C@H]([C@H](O)[C@@H](CO)O[C@]4(C(=O)O)C[C@H](O)[C@@H](NC(C)=O)[C@H]([C@H](O)[C@H](O)CO)O4)O3)[C@H]2O)[C@H](O)[C@H]1O)[C@H](O)/C=C/CCCCCCCCCCCCC [C24:1 GD3] |
| 2540 µM | – | CCCCCCCC/C=C\CCCCCCCCCCCCCC(=O)N[C@@H](CO[C@@H]1O[C@H](CO)[C@@H](O)[C@H](O)[C@H]1O)[C@H](O)/C=C/CCCCCCCCCCCCC [C24:1 β-GlcCer] |
